Data reported in patent US7034110B2, “Method of identifying chemical compounds having selected properties for a particular application” (ArQule, Inc., priority 1994, dated 2006).
Like-named read-outs stand apart in the source and are kept apart here.

How the values were obtained:
chymotrypsin = chymotrypsin (Bos taurus, UniProt P00766); assay: competitive inhibition of chymotrypsin, standard assay using a BTEE substrate; type: biochemical
Experimental: The set of molecules where X=CH2 was tested as competitive inhibitiors of the enzyme chymotrypsin in a standard assay using a BTEE substrate.

[1] = boiling in 6 N NaOH for 24 hrs; cited from earlier work

| Ki (chymotrypsin) [µM] | SMILES | also measured |
| --- | --- | --- |
| 200 | CC(=O)[N-][N+]1(CC(O)c2ccccc2)CCCCC1 (centres unmarked) [R1=Ph, R2=Me] | – |
| 500 | O=C([N-][N+]1(CC(O)c2ccccc2)CCCCC1)c1ccccc1 (centres unmarked) [R1=Ph, R2=Ph] | – |

Continued, compound first:

| SMILES | Ki (chymotrypsin) [µM] | also measured |
| --- | --- | --- |
| CC(=O)[N-][N+]1(CC(C)O)CCCCC1 (centres unmarked) [R1=Me, R2=Me] | – | Ki (chymotrypsin; competitive inhibition, BTEE substrate, set of molecules where X=CH2): not be an inhibitor |
| CC(O)C[N+]1([N-]C(=O)c2ccccc2)CCCCC1 (centres unmarked) [R1=Me, R2=Ph] | 130 | – |
| CN(C)C.NC(=O)c1ccccc1 [trimethyl amine benzamide] | – | hydrolytic stability [1]: unchanged |
